Experimental findings from the METLIN SMRT retention time set (Domingo-Almenara et al. 2019) are described below.

Molecules are shown by their SMILES.

This data set is described as follows: gradient 5% acetonitrile 3 min, to 50% in 2 min, to 85% in 15 min, held 3 min, 100 µL/min. Particulars: column: Zorbax Extend-C18 2.1 x 50 mm; eluents: water / acetonitrile, 0.1% formic acid. In short, it runs like this: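 Data were gathered over 3 months by HPLC coupled to a quadrupole time-of-flight mass spectrometer, operated in positive and negative ionization mode. Mixtures of ~100 pure standards ran on a Zorbax Extend-C18 column (2.1 × 50 mm, 1.8 μm) at 100 μL/min, with water and acetonitrile each containing 0.1% formic acid and dead and dwell volumes of 40 μL and 900 μL. Retention time was read from adduct peaks picked by computer and checked manually.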
For `Cn1cc(C=O)c2nccnc21`, the RP-LC retention time is 631 s. Under `CCc1cccc(NC(=O)C2CCN(S(=O)(=O)c3ccc4c(c3)CCCC(=O)N4)CC2)c1` stands 735 s; under `COc1ccc(C)cc1N(C)C(=O)C1CCCN(c2ncnc3c2nc2n3CCCCC2)C1` (centres undefined), 869 s; under `Cc1nc(N2CCCC2)c2c(C(=O)Nc3cccc(C)c3C)c(C)oc2n1`, 756 s. The same measure for `CC1CCN(CCCNC(=O)C2CCc3sc(C(=O)N4CCOCC4)cc3C2)CC1` (centres undefined): 596 s. The same measure for `CCS(=O)(=O)N1CC(c2nc(-c3ccc(F)cc3)no2)C2(CCOCC2)C1` (centres undefined): 877 s; for `COc1ccc(-n2c(=O)n(C)c(=O)c3cc(C(=O)NCc4ccccc4F)cnc32)cc1`: 849 s; for `COc1cc(C(=O)NCC(=O)Nc2nc3ccccc3[nH]2)cc(OC)c1OC`: 617 s. Take `Cc1ccc(CNC(=O)C2Cn3cccc3C(=O)N2C)o1` (centres undefined): the RP-LC retention time was found to be 663 s.

In turn, `COCCCNC(=O)C1CCN(C(=O)c2ccc(-n3c(C)cc4ccccc43)s2)CC1` registered an RP-LC retention time of 854 s. Under `NC(=O)C1CCN(C2CC(=O)N(c3ccccc3Sc3ccccc3)C2=O)CC1` (centres undefined) stands 650 s; under `Cc1oc2c(c1C(=O)Nc1ccc(C(F)(F)F)cc1)C1=NC(C)(C)CN1C=N2`, 728 s; under `COc1ccc(NC(=O)NCCn2c(C(F)(F)F)nc3cccnc32)cc1`, 701 s. Take `Cc1cc(=O)n(CC(=O)Nc2ccc(F)cc2F)c(N2CCCCC2)n1`: the RP-LC retention time was 672 s. Regarding `Cc1ccc(Nc2nc(Cl)nc3ncn(C)c23)c(C)c1`, the RP-LC retention time was 791 s.

`CCc1noc(COC2CCCN(C(=O)Cn3ccnc3)C2)n1` (centres undefined): the RP-LC retention time was determined as 586 s. The same measure for `COC(=O)CCSCC(=O)Nc1nnc(C)s1`: 602 s; for `Cc1ccc(Cn2c(=O)n(CCNC(=O)c3ccc4c(c3)OCO4)c3ncccc32)cc1`: 824 s; for `Cc1c(-c2noc(C(=O)NCCN(C)C)n2)oc2c(C)cccc12`: 676 s. Under `COc1ccc(NS(=O)(=O)c2cc(-c3[nH]ncc3C(=O)N(C)C)oc2C)cc1Cl` stands 699 s; under `O=C(CCc1nnc2c3cc(-c4ccc(F)cc4)nn3ccn12)NCCc1ccccn1`, 603 s; under `CCS(=O)(=O)N1CC(=O)N(c2ccc(Cl)cc2C)C(C)(C(=O)NCc2ccc(F)cc2)C1` (centres undefined), 882 s. The compound `CCCOc1ccc(C(=O)Nc2nnc(SCc3nnc(-c4ccccc4)o3)s2)cc1` registered an RP-LC retention time of 1050 s. The same measure for `Cc1csc(-c2cc(S(=O)(=O)NC3CCCCC3)cn2CC(=O)N2CCCC2)n1`: 927 s; for `CN(C)C(CNC(=O)c1cc(=O)c2cc(Cl)ccc2o1)c1ccccc1` (centres undefined): 650 s. `CCCCNC(=O)C1CCCN(C(=O)c2[nH]c(C)cc2C)C1` (centres undefined) yielded an RP-LC retention time of 691 s. The compound `Cc1nc(N2CCN(c3ncccn3)CC2)nc2c1C(=O)CC(/C=C/c1ccccc1)C2` (centres undefined) gave an RP-LC retention time of 1290 s. For the compound `CCCn1c(C)cnc1C1CN(S(=O)(=O)c2ccc(Cl)c(C)c2)C1`, the RP-LC retention time is 732 s. The same measure for `COc1cccc(Cc2nc(-c3cccc(-c4ccnn4C)c3)no2)c1`: 1010 s. The same measure for `O=S(=O)(c1cccnc1)N1CC[C@@H]2COCCN(Cc3cccnc3)[C@@H]2C1`: 577 s; for `O=C(c1ccncc1)N1CCC2(CC1)N=C(c1ccccc1)NO2`: 611 s. The same measure for `COc1ccc(OC)c(Nc2c(-c3ccc(Br)cc3)nc3cnccn23)c1`: 1000 s; for `Cc1oc(-c2ccc(NC(=O)CC(C)(C)C)cc2)nc1Cn1cccn1`: 883 s; for `Cc1oc2ncnc(N3CCOCC3)c2c1C(=O)N1CCCc2ccccc21`: 790 s. In the case of `COCCNC(=O)NC1CCN(c2nc3cccnc3n(Cc3ccc(C)cc3)c2=O)CC1`, the RP-LC retention time was determined as 882 s. In turn, `CCN(CC)CCNC(=O)c1nc(-c2oc3ccc(C)cc3c2C)no1` registered an RP-LC retention time of 695 s. On to `CC(C)c1ccc(CNC(=O)c2cn3c(n2)CCCC3)cc1`, for which the RP-LC retention time was found to be 675 s. Compound `CN(C)c1ccc(-c2nc3ccc(Cl)cn3c2Nc2ccc3c(c2)OCCO3)cc1` had an RP-LC retention time of 744 s. Turning to `O=S(=O)(c1ccc(F)cc1)N1CCCC(c2nnnn2-c2ccccc2)C1` (centres undefined), the RP-LC retention time turned out to be 934 s.

`O=C(CSCc1ccccc1)NCC1(CO)CC1` gave an RP-LC retention time of 660 s.

`Cc1cc(Nc2nc(N[C@@H](C)c3ccc(F)cc3)c(C#N)cc2F)n[nH]1` returned an RP-LC retention time of 877 s.

Consider `CCC(C)NC(=O)C1CCN(C(=O)c2cc3ccsc3n2Cc2cccc(OC)c2)CC1` (centres undefined), for which the RP-LC retention time was found to be 633 s. Under `CC1(C(=O)NCc2ccc(F)cc2)CCN(C(=O)Nc2ccccc2Br)CC1` stands 871 s; under `Cc1ccc(-n2cc3c(c(C(=O)N4CCCC4)c2=O)CC(C)(C)CC3=O)cc1`, 758 s.

Consider `CCc1ccc(NC(=O)Nc2ccc3nnc(C)n3c2)cc1`, for which the RP-LC retention time amounted to 712 s. Compound `CCN1C(=O)NC(c2ccc(C)cc2C)C2=C1CN(CCC(=O)N1CCCC1)C2=O` (centres undefined) came in with an RP-LC retention time of 623 s. On to `Cc1ccc(C)c(NC(=O)Cn2cnc3c(sc4nc(-c5ccccc5)ccc43)c2=O)c1`, for which the RP-LC retention time turned out to be 1050 s. Under `Cc1c(Cl)ccc2c(=O)c3c([nH]c12)CCN(CC(=O)NCc1ccc2c(c1)OCO2)C3` stands 666 s; under `Cc1noc(-c2cccc(OC3CN(C(=O)Nc4cccc(F)c4)C3)c2)n1`, 923 s.

In the case of `CCSCCOC(=O)C1=C(C)NC2=C(C(=O)C(C(=O)OC)C(C)C2)C1c1cccc(OC)c1` (centres undefined), the RP-LC retention time was found to be 968 s. Under `Cc1cc(C)cc(C(=O)N2CCC(COc3ccc(C(=O)NC4CC4)cc3)CC2)c1` stands 887 s; under `COc1ccc(C2Cn3cnc(C(=O)N4CCC(C(=O)Nc5ccc(C)cc5C)CC4)c3CO2)cc1` (centres undefined), 740 s. Under `O=C(C1CCN(c2nnc(-c3ccccc3)o2)CC1)N1CCC2(CC1)OCCO2` stands 701 s.

Consider `Cc1nn(C)c(C)c1CCC(=O)N1CCN(c2ncccn2)CC1`, for which the RP-LC retention time was determined as 564 s. Under `COCCn1cc(CCNC(=O)Nc2ccc(C)c(F)c2)c2cccnc21` stands 772 s; under `CCn1ccc2cc(S(=O)(=O)N3CCCC(C(=O)NC4CCCCC4)C3)ccc21` (centres undefined), 1010 s; under `O=C(CN1C(=O)CC(c2ccccc2)S(=O)(=O)c2ccccc21)Nc1ccc(F)cc1F` (centres undefined), 906 s. The same measure for `O=S(=O)(NCC(c1ccccc1)S(=O)(=O)c1cccs1)c1cccs1` (centres undefined): 878 s. Under `O=C(Cc1cccs1)N1CCCCC1c1nncn1-c1ccccc1` (centres undefined) stands 712 s; under `CC(NC(=O)c1ccc2nc(-c3ccc(Cl)cc3)cn2c1)c1ccccn1` (centres undefined), 635 s. In the case of `CCn1ccc(C(=O)N(CC2CCCO2)c2nc3c(C(C)C)cccc3s2)n1` (centres undefined), the RP-LC retention time was found to be 1370 s. The same measure for `COCCn1ncc(N2CCC(C(=O)Nc3ccc(F)cc3F)C2)cc1=O` (centres undefined): 666 s; for `CCN1CCN(c2ncc(N3CCC(C(=O)NCCN4CCCCC4C)CC3)cn2)CC1` (centres undefined): 537 s. The same measure for `Cc1nnc(-c2cc(C)n(CC(=O)Nc3ccc(C)c(C)c3)c2C)o1`: 809 s; for `Cc1cccc(C)c1Nc1c(-c2ccccc2)nc2ncccn12`: 786 s; for `Cc1ccc(Cl)cc1NC(=O)N1CCC(c2nc(C(=O)N3CCCC3)c(C)o2)CC1`: 858 s. Under `COC(=O)c1c(C)[nH]c(C(=O)N2CCC(CC(=O)N3CCCC3)CC2)c1C` stands 628 s; under `C=CCn1c(=O)c2ccccc2n(Cc2nc(-c3ccc(OC)c(OC)c3)no2)c1=O`, 937 s; under `CCCc1cc(=O)n(CC(=O)Nc2ccc(C)cc2Cl)c(-c2ccc(Cl)cc2)n1`, 1080 s. For the compound `Clc1cc2c(c(CN3CCN(c4ccccc4)CC3)c1)OCOC2`, the RP-LC retention time turned out to be 584 s. Under `O=C(Cc1cccc(F)c1)N1CC(N2CC(C(=O)N3CCCC3)CC2=O)C1` (centres undefined) stands 648 s; under `CN1c2ccc(F)cc2C(=O)NC12CCN(C(=O)Cc1ccccc1)CC2`, 764 s. In turn, `Cc1ccc(-n2ccc(=O)c(-c3nc(-c4ccc5c(c4)OCO5)no3)n2)cc1` displayed an RP-LC retention time of 893 s.

For the compound `COc1ccc2c(c1)CCc1c-2n[nH]c1C(=O)N1CCN(c2cc(=O)n(C)c(=O)n2C)CC1`, the RP-LC retention time was determined as 659 s. The same measure for `Cc1ccc(N2CCN(Cc3nc(-c4ccc(N5CCCC5)nc4)no3)CC2)cc1`: 678 s. With `COC(=O)c1cc2n(n1)CC(C)(C(=O)NC1CCCCC1)N(c1ccccc1F)C2=O` (centres undefined), the RP-LC retention time is 853 s. Under `COc1ccc(-c2nc3cnccn3c2Nc2ccccc2C)cc1` stands 886 s; under `CC(C(=O)N1CCN(c2cc(=O)n(C)c(=O)n2C)CC1)N1C(=O)COc2ccccc21` (centres undefined), 627 s. The same measure for `O=C(Nc1cccc(C(F)(F)F)c1)c1cnc(-c2ccc(F)cc2)nc1-c1ccncc1`: 1060 s.
